Data as given in ChEMBL document CHEMBL1201862, “PubChem BioAssay data set” (2004).
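Five compound concentrations were applied to cells in 96-well plates for 48 hours; endpoints were derived by simple linear interpolation of the resulting dose-response curve. GI50: concentration for 50% inhibition of growth.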 Active and inactive are the calls of the source. Rule as the data show it: active = GI50 up to about 1.1 µM and inactive = higher. Non-standard residues stand in square brackets, D forms with d. Residues, ends and D or L forms follow the SMILES beside them. ξ: configuration not given here. *: point of attachment. NMeF = CN[C@@H](Cc1ccccc1)C(=O)O; NMeN = CN[C@@H](CC(N)=O)C(=O)O; NMeV = CN[C@H](C(=O)O)C(C)C; ξNMeV = CNC(C(=O)O)C(C)C; Boc = CC(C)(C)OC(=O)*; ξNMeA = CNC(C)C(=O)O; ξV = CC(C)C(N)C(=O)O

Tests used:
Experiment in all cases: NCI-60 cell line screen, 48 h
DMS-273 = test system: DMS-273
KM-20L2 = test system: KM-20L2
M19-MEL = test system: M19-MEL
RXF 631 = test system: RXF 631
HOP-18 = test system: HOP-18
DMS-114 = test system: DMS-114
SNB-78 = test system: SNB-78
LXFL 529 = test system: LXFL 529
XF498 = test system: XF498

Measured: GI50

COc1ccc2ccccc2c1C1OC(=O)c2ccccc21 (stereo not drawn)
inactive: DMS-273 86.9 µM | KM-20L2 > 100 µM | M19-MEL > 100 µM | RXF 631 > 100 µM | HOP-18 > 100 µM | DMS-114 53.3 µM | SNB-78 > 100 µM

N#CC1=C(Cl)NC(Cl)=C(C#N)C1c1c(Cl)cccc1Cl
inactive: DMS-273 19.6 µM | KM-20L2 45.8 µM | LXFL 529 30.8 µM | HOP-18 30.1 µM | XF498 13.9 µM | DMS-114 14.2 µM | SNB-78 92.7 µM

CCOc1ccc(/N=C/c2ccc3ccccc3n2)cc1
inactive: DMS-273 > 100 µM | KM-20L2 > 100 µM | M19-MEL > 100 µM | LXFL 529 > 100 µM | RXF 631 > 100 µM | HOP-18 > 100 µM | XF498 > 100 µM | SNB-78 > 100 µM

CC1(C)CC23C(=O)N(c4ccccc4)C(Nc4ccccc4)=NC2=CC(C#N)=C(C#N)C3O1 (stereo not drawn)
inactive: KM-20L2 > 100 µM | M19-MEL 94.6 µM | LXFL 529 > 100 µM | RXF 631 > 100 µM | XF498 > 100 µM | DMS-114 42.5 µM | SNB-78 > 100 µM

COC(=O)C(C)N(C)C(=O)[C@H](CC(N)=O)N(C)C(=O)[C@@H]1CCCN1C(=O)[C@H](C(C)C)N(C)C(=O)C(C(C)C)N(C)C(=O)[C@H](Cc1ccccc1)N(C)C(=O)C(NC(=O)OC(C)(C)C)C(C)C (stereo partly drawn) (Boc-[ξV][NMeF][ξNMeV][NMeV]P[NMeN][ξNMeA]-OMe)
inactive: DMS-273 15.1 µM | KM-20L2 33 µM | LXFL 529 3.13 µM | XF498 15.4 µM | DMS-114 4.65 µM | SNB-78 17.9 µM

Cc1c(NC(=S)NC(=O)c2ccc([N+](=O)[O-])cc2)c(=O)n(-c2ccccc2)n1C
inactive: DMS-273 > 100 µM | KM-20L2 > 100 µM | M19-MEL > 100 µM | LXFL 529 > 100 µM | HOP-18 > 100 µM | DMS-114 > 100 µM | SNB-78 > 100 µM

BrC1=CC=C2NCCCCCC/N=C3\C=CC(Br)=CC=C3NCCCCCC/N=C\2C=C1
inactive: DMS-273 > 25.5 µM | KM-20L2 > 25.5 µM | M19-MEL > 25.5 µM | RXF 631 > 25.5 µM | DMS-114 > 25.5 µM | SNB-78 > 25.5 µM

CC1=NN(C(=O)Cc2ccccc2)C(=O)/C1=C/c1c(O)ccc2ccccc12
inactive: DMS-273 50.5 µM | M19-MEL 33 µM | HOP-18 30.3 µM | XF498 1.68 µM | DMS-114 45.9 µM

O=C1Nc2ccc([N+](=O)[O-])cc2/C1=N/Nc1ccc([N+](=O)[O-])cc1
inactive: DMS-273 10.7 µM | KM-20L2 17.8 µM | M19-MEL 16.1 µM | LXFL 529 12.4 µM | RXF 631 24.7 µM | XF498 16.7 µM | DMS-114 19.9 µM

O=S(O)CCCCSSCCCCSSCCCCS(=O)O
inactive: DMS-273 42.6 µM | KM-20L2 > 100 µM | M19-MEL 5.53 µM | LXFL 529 11.1 µM | RXF 631 33.7 µM | HOP-18 70.1 µM | XF498 6.41 µM | DMS-114 25.5 µM | SNB-78 15.7 µM

COC1OC(CO)C(O)C(OC(C)=O)C1NC(=O)N(CCCl)N=O (stereo not drawn)
inactive: DMS-273 > 100 µM | KM-20L2 > 100 µM | M19-MEL > 100 µM | LXFL 529 > 100 µM | RXF 631 > 100 µM | HOP-18 > 100 µM | XF498 > 100 µM | DMS-114 > 100 µM | SNB-78 > 100 µM

CCN1CC2(C)CC[C@@H](OC)C34[C@@H]2[C@H](OC(C)=O)C2(OCO[C@@]25C[C@H](OC)C2C[C@]3(O)[C@@H]5[C@H]2O)[C@H]14
inactive: KM-20L2 > 100 µM | M19-MEL > 100 µM | LXFL 529 > 100 µM | DMS-114 > 100 µM | SNB-78 > 100 µM
